pIC50: −log10 of the molar value.
Experiments:
[1] = molecular target: T1, Stearoyl-CoA desaturase (Homo sapiens, UniProt O00767); assay: Compound Profiling Methods
T1 sequence (O00767 whole entry): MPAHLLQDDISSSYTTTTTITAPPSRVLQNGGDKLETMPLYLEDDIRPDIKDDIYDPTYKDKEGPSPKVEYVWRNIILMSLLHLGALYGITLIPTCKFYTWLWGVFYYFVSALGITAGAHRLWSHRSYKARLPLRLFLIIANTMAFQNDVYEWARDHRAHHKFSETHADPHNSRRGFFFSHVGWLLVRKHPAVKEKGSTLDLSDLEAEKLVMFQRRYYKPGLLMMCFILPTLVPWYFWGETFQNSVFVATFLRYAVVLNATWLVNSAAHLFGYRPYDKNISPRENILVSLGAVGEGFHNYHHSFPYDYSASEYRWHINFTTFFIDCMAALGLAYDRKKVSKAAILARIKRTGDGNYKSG
Procedure: (§1) Strains expressing SCD1 or SCD5 as the sole desaturase, the human SCD1 and SCD5 genes were used to evaluate inhibition of SCD1/SCD5 using reduced growth as a surrogate for SCD inhibition. These yeast strains express human SCD1 or SCD5 from a plasmid harbored in a strain in which the yeast OLE1 gene is deleted.All compound profiling experiments were performed using the same basic protocol. Yeast were cultured using standard techniques in complete synthetic media lacking uracil and containing yeast nitrogen base supplemented with 2% (w/v) glucose (SD-Ura) Starter cultures were inoculated in 3 mL SD-Ura media containing 0.01% tween and 0.2 mM palmitoleic and oleic acid. Cultures were incubated overnight in a 30° C. shaker incubator (225 rpm). Saturated morning cultures were centrifuged, washed in SD-Ura media lacking TWEEN-20 and fatty acids, and then diluted 1:20 in fresh SD-Ura media also lacking TWEEN-20 and fatty acids. […] Compound administration was performed in two separate steps. First, 15 μL of SD-Ura was dispensed into clear 384-well assay plates using a MULTIDROP Combi reagent dispenser. […] The cultures described above were centrifuged and washed with media lacking TWEEN-20 or oleic and palmitoleic acids. Cultures were then resuspended at a 2-fold concentrated OD600 of 0.02 (final OD600 of 0.0.01) in SD-Ura. […] Yeast growth was monitored by reading the OD600 of each well using a microplate reader (Perkin Elmer EnVision ). Data were analyzed as follows.

[2] = molecular target: T2, Stearoyl-CoA desaturase 5 (Homo sapiens, UniProt Q86SK9); assay: Compound Profiling Methods
T2 sequence (Q86SK9 whole entry): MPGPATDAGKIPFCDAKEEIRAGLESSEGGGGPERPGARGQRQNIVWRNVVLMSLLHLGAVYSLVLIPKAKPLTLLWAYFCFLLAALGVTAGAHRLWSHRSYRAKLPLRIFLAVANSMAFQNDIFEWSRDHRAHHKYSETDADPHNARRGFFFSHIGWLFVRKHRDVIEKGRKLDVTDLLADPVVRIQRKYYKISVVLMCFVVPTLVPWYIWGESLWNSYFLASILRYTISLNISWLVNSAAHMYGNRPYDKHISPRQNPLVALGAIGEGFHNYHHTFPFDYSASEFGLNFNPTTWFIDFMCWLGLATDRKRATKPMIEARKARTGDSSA
Procedure: as §1

pIC50 [1]	pIC50 [2]	SMILES
< 4.35	< 4.35	O=C(c1cc(-c2ccc3c(c2)CCO3)on1)N1CCCC1c1ccncn1 (stereo not drawn) [US10919885, Compound No. 440]
< 4.35	–	COc1ccc(C2CCCN2C(=O)c2cc(-c3ccccc3OC)on2)cc1 (stereo not drawn) [US10919885, Compound No. 379]
< 4.35	< 4.35	CC(C)(C)OC(=O)N1CCC(NC(=O)c2cc(-c3ccco3)on2)CC1 [US10919885, Compound No. 287]
< 4.35	4.53	CC(C)(C)OC(=O)N1CCC2(CCN(C(=O)c3cc(-c4ccccc4)on3)C2)C1 (stereo not drawn) [US10919885, Compound No. 295]
< 4.35	< 4.35	CC(C)(C)OC(=O)N1CCC(NC(=O)c2cc(-c3ccco3)on2)C1 (stereo not drawn) [US10919885, Compound No. 332]
< 4.35	5.32	N#Cc1ccc(C2CCN(C(=O)c3cc(-c4ccc5c(c4)OCO5)on3)CC2)cc1 [US10919885, Compound No. 291]
< 4.35	–	O=C(Nc1cnn(Cc2ccccc2)c1)c1cc(-c2ccc3c(c2)OCO3)on1 [US10919885, Compound No. 6]
< 4.35	< 4.35	O=C(Nc1cnn(Cc2cccc(Cl)c2)c1)c1cc(-c2ccccn2)on1 [US10919885, Compound No. 57]
< 4.35	5.74	O=C(c1cc(-c2ccc3c(c2)OCO3)on1)N1CCC(c2ccc(F)c(F)c2)CC1 [US10919885, Compound No. 292]
< 4.35	< 4.35	O=C(c1noc2ccccc12)N1CCC[C@H]1c1ccccc1 [US10919885, Compound No. 438]

— BindingDB's records for patent US10919885 (Yumanity Therapeutics, 2021)
